Source: the supplement of paper PMC10949913

Assays:
Experiment in all cases: area under concentration-response curve (viability) (AUC (a.u.)); higher = less active
Settings in all cases: 48 h
CU-ACC2 = test system: CU-ACC2
Procedure, shortened: (§1)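 Three adrenocortical carcinoma cell lines were plated in 1,536-well plates at 500–1,000 cells/well in 5 µL medium, and 23 nL of each library compound was added at 11 concentrations. After 48 h, CellTiter-Glo was applied for 15 minutes at room temperature before luminescence was read. Each plate's signals were normalised to vehicle and empty-well controls. AC50 and area under the curve were taken from fitted concentration-response curves, with only inhibitory or non-responding curve classes retained.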

CU-ACC1 = test system: CU-ACC1
Procedure, shortened: as §1

NCI-H295R = test system: NCI-H295R
Procedure, shortened: as §1

SMILES	area under concentration-response curve (CU-ACC2)	area under concentration-response curve (CU-ACC1)	area under concentration-response curve (NCI-H295R)
Cc1c(F)cc(C(=O)NC2CC2)cc1-c1c(F)cn2c(C(C)(C)C)nnc2c1F	507	482	469
CC[C@H](NC(=O)[C@H](C[S+](=O)([O-])CC1CC1)N[C@@H](c1ccc(F)cc1)C(F)(F)F)C(=O)C(=O)NC1CC1	510	534	538
O=P(O)(O)C(O)(Cc1cccnc1)P(=O)(O)[O][Na] (stereo not drawn)	573	508	533
CN1[C@@H]2CCC[C@H]1CC(NC(=O)c1nn(C)c3ccccc13)C2 (stereo partly drawn)	584	511	490
CCc1nc(N)nc(N)c1-c1ccc(Cl)cc1	564	483	521
CN1C(=O)N[C@@H](Cc2c[nH]c3c(Cl)cccc23)C1=O	512	531	535
Cc1ccc(-c2ccc(C)cn2)nc1	342	405	384
CC(C)C[C@H](CN)CC(=O)O	595	474	545
Cc1ncc([N+](=O)[O-])n1CC(C)O (stereo not drawn)	644	554	566
CCn1c(-c2nonc2N)nc2cnc(Oc3cccc(NC(=O)c4ccc(OCCN5CCOCC5)cc4)c3)cc21	547	494	511
Cc1cccc(C)c1NC(=O)CN1CCCC1=O	544	486	520
COC1=C2OC(=O)\C=C/C2=CC3=C1OC=C3	482	420	475
CCCC1=N[N](C)C2=C1\N=C(/NC2=O)C3=CC(=CC=C3OCC)[S+]([O-])(=O)N4CCN(C)CC4	610	561	539
Cc1ccc([S+](=O)([O-])N[C@@H](Cc2ccccc2)C(=O)CCl)cc1	628	530	584
CCOC(=O)\C1=C\[C@@H](OC(CC)CC)[C@H](NC(C)=O)[C@@H](N)C1	602	508	547
N=C(N)NC(=O)c1nc(Cl)c(N)nc1N	658	455	615
CCN(CCCOc1ccc2c(Nc3cc(CC(=O)Nc4cccc(F)c4)[nH]n3)ncnc2c1)CCOP(=O)(O)O	579	471	495
CCCCCCCCCCCC(CC1OC(=O)C1CCCCCC)OC(=O)C(CC(C)C)NC=O (stereo not drawn)	517	474	336
O=C(O)/C=C/c1ccc(Cn2ccnc2)cc1	486	485	572
Oc1nc(-c2ccc(C(F)(F)F)cc2)nc2c1CSCC2	509	511	483
CC(C(=O)O)c1ccc2c(c1)CC(=O)c1ccccc1S2 (stereo not drawn)	554	535	497
